Patent publication US12365656B2, “Oxazolidinone compounds and methods of use thereof as antibacterial agents” (priority 2019, dated 2025)
In brackets after ≈: the same amount, converted by molar mass. Read-outs that look alike come from different tables or passages of the source.

Tests used:
Assay type in all cases: cell-based
[1] = tested on: Mycobacterium tuberculosis (Mtb-GFP; H37Rv pMSP12::GFP); test: microbe, parasite or virus in culture; conditions: for MIC: Mycobacterium tuberculosis, H37RV, 168 h, pH 6.8, read-out: Mtb Cho MITC95
[2] = tested on: Mycobacterium tuberculosis (Mtb-GFP; H37Rv pMSP12::GFP); test: microbe, parasite or virus in culture; conditions: for MIC: Mycobacterium tuberculosis, H37RV, 168 h, pH 6.8, read-out: Mtb Glu MITC95
[3] = tested on: mitochondrial protein synthesis in HepG2 cells; test: Mitochondrial protein synthesis assay; conditions: 4 days, COX-1 relative to SDH-A / Janus Green, In Cell ELISA, read-out: MPS IC50

Compound	Mtb Cho MITC95 ([1]; cholesterol carbon source, pH 6.8, 7-day growth, GFP fluorescence, lowest concentration inhibiting 95% of growth) [µM]	Mtb Glu MITC95 ([2]; glucose carbon source, pH 6.8, 7-day growth, GFP fluorescence, lowest concentration inhibiting 95% of growth) [µM]	IC50 [3] [µM]	MIC [1] [µM]	MIC [2] [µM]	IC50 ([3]; Homo sapiens, 96 h) [µM]
4-{2,6-difluoro-4-[(5R)-5-(hydroxymethyl)-2-oxo-1,3-oxazolidin-3-yl]phenyl}-4-hydroxy-1λ^6-thiane-1,1-dione [Example 34]	25	25	> 100	–	–	–
CS(=O)(=O)c1ccc(-c2ccc(N3C[C@H](CO)OC3=O)cc2F)cc1 [Example 1, (5R)-3-[2-fluoro-4′-(methylsulfonyl)biphenyl-4-yl]-5-(hydroxymethyl)-1,3-oxazolidin-2-one]	–	–	–	1.2 (≈ 0.438 µg/mL)	1 (≈ 0.365 µg/mL)	7
O=C1O[C@@H](CO)CN1c1cc(F)c(C2(F)CCS(=O)(=O)CC2)c(F)c1 [Example 2, (5R)-3-[3,5-difluoro-4-(4-fluoro-1,1-dioxidotetrahydro-2H-thiopyran-4-yl)phenyl]-5-(hydroxymethyl)-1,3-oxazolidin-2-one]	–	–	–	2.2 (≈ 0.835 µg/mL)	1.9 (≈ 0.721 µg/mL)	> 100
CSc1ccc(-c2ccc(N3C[C@H](CO)OC3=O)cc2F)cc1 [Example 4, (5R)-3-[2-fluoro-4′-(methylsulfanyl)[1,1′-biphenyl]-4-yl]-5-(hydroxymethyl)-1,3-oxazolidin-2-one]	–	–	–	0.24 (≈ 0.08 µg/mL)	0.21 (≈ 0.07 µg/mL)	> 100
O=C1O[C@@H](CO)CN1c1ccc(-c2ccn3ncnc3c2)c(F)c1 [Example 8, (5R)-3-[3-fluoro-4-([1,2,4]triazolo[1,5-a]pyridin-7-yl)phenyl]-5-(hydroxymethyl)-1,3-oxazolidin-2-one]	–	–	–	1.8 (≈ 0.591 µg/mL)	1.5 (≈ 0.492 µg/mL)	3.7
O=C1O[C@@H](CO)CN1c1ccc(-c2ccc(OCCO)cc2)c(F)c1 [Example 12, (5R)-3-[2-fluoro-4'-(2-hydroxyethoxy)[1,1′-biphenyl]-4-yl]-5-(hydroxymethyl)-1,3-oxazolidin-2-one]	–	–	–	0.39 (≈ 0.135 µg/mL)	0.78 (≈ 0.271 µg/mL)	19
CN1CC(C)(S(=O)(=O)c2ccc(-c3ccc(N4C[C@H](CO)OC4=O)cc3F)cc2)C1 [Example 14, (5R)-3-[4'-(1,3-dimethylazetidine-3-sulfonyl)-2-fluoro[1,1′-biphenyl]-4-yl]-5-(hydroxymethyl)-1,3-oxazolidin-2-one]	–	–	–	0.78 (≈ 0.339 µg/mL)	0.78 (≈ 0.339 µg/mL)	23
O=C1O[C@@H](CO)CN1c1cc(F)c(C2=CCS(=O)(=O)CC2)c(F)c1 [Example 15, 4-{2,6-difluoro-4-[(5R)-5-(hydroxymethyl)-2-oxo-1,3-oxazolidin-3-yl]phenyl}-3,6-dihydro-1λ6-thiopyran-1,1(2H)-dione]	–	–	–	1.6 (≈ 0.575 µg/mL)	1.6 (≈ 0.575 µg/mL)	> 100
N#CC1(c2c(F)cc(N3C[C@H](CO)OC3=O)cc2F)CCS(=O)(=O)CC1 [Example 16, 4-{2,6-difluoro-4-[(5R)-5-(hydroxymethyl)-2-oxo-1,3-oxazolidin-3-yl]phenyl}-1,1-dioxo-1λ6-thiane-4-carbonitrile]	–	–	–	1.6 (≈ 0.618 µg/mL)	1.6 (≈ 0.618 µg/mL)	50
O=C1O[C@@H](CO)CN1c1cc(F)c(N2CC3CS(=O)(=O)CC3C2)c(F)c1 (stereo partly drawn) [Example 17, 5-{2,6-difluoro-4-[(5R)-5-(hydroxymethyl)-2-oxo-1,3-oxazolidin-3-yl]phenyl}hexahydro-2λ6-thieno[3,4-c]pyrrole-2,2(1H)-dione]	–	–	–	3.1 (≈ 1.2 µg/mL)	2.3 (≈ 0.893 µg/mL)	> 100
CC(=O)N1CCN(c2c(F)cc(N3C[C@H](CO)OC3=O)cc2F)C2CC21 (stereo partly drawn) [Example 18, (5R)-3-[4-(5-acetyl-2,5-diazabicyclo[4.1.0]heptan-2-yl)-3,5-difluorophenyl]-5-(hydroxymethyl)-1,3-oxazolidin-2-one]	–	–	–	3.1 (≈ 1.14 µg/mL)	3.1 (≈ 1.14 µg/mL)	> 100
Cc1nnc2cc(-c3ccc(N4C[C@H](CO)OC4=O)cc3F)ccn12 [Example 19, (5R)-3-[3-fluoro-4-(3-methyl[1,2,4]triazolo[4,3-a]pyridin-7-yl)phenyl]-5-(hydroxymethyl)-1,3-oxazolidin-2-one]	–	–	–	1.2 (≈ 0.411 µg/mL)	1.2 (≈ 0.411 µg/mL)	18
CN1CC(S(=O)(=O)c2ccc(-c3ccc(N4C[C@H](CO)OC4=O)cc3F)cc2)C1 [Example 20, (5R)-3-[2-fluoro-4′-(1-methylazetidine-3-sulfonyl)[1,1′-biphenyl]-4-yl]-5-(hydroxymethyl)-1,3-oxazolidin-2-one]	–	–	–	0.39 (≈ 0.164 µg/mL)	0.39 (≈ 0.164 µg/mL)	7.4
O=C1O[C@@H](CO)CN1c1cc(F)c(N2CCN(C(=O)C3CC3)C3CC32)c(F)c1 (stereo partly drawn) [Example 21, (5R)-3-{4-[5-(cyclopropanecarbonyl)-2,5-diazabicyclo[4.1.0]heptan-2-yl]-3,5-difluorophenyl}-5-(hydroxymethyl)-1,3-oxazolidin-2-one]	–	–	–	3.1 (≈ 1.22 µg/mL)	6.3 (≈ 2.48 µg/mL)	> 13
O=C1O[C@@H](CO)CN1c1cc(F)c(N2CCS(=O)(=O)CC2)c(F)c1 [Example 22, 4-{2,6-difluoro-4-[(5R)-5-(hydroxymethyl)-2-oxo-1,3-oxazolidin-3-yl]phenyl}-1λ^6-thiomorpholine-1,1-dione]	–	–	–	6.3 (≈ 2.28 µg/mL)	3.9 (≈ 1.41 µg/mL)	> 100
CN1CC(C)(S(=O)(=O)c2ccc(-c3ccc(N4C[C@H](CO)OC4=O)cc3)cc2)C1 [Example 23, (5R)-3-[4'-(1,3-dimethylazetidine-3-sulfonyl)[1,1'-biphenyl]-4-yl]-5-(hydroxymethyl)-1,3-oxazolidin-2-one]	–	–	–	3.1 (≈ 1.29 µg/mL)	1.6 (≈ 0.666 µg/mL)	> 100
O=C1O[C@@H](CO)CN1c1ccc(C2(F)CCS(=O)(=O)CC2)c(F)c1 [Example 24, 4-fluoro-4-[2-fluoro-4-[(5R)-5-(hydroxymethyl)-2-oxo-1,3-oxazolidin-3-yl]phenyl}-1λ^6-thiane-1,1-dione]	–	–	–	6.3 (≈ 2.28 µg/mL)	6.3 (≈ 2.28 µg/mL)	> 50
O=C1O[C@@H](CO)CN1c1cc(F)c(C2(F)CCS(=O)(=O)CC2)c(F)c1F [Example 25, 4-fluoro-4-{2,3,6-trifluoro-4-[(5R)-5-(hydroxymethyl)-2-oxo-1,3-oxazolidin-3-yl]phenyl}-1λ^6-thiane-1,1-dione]	–	–	–	6.3 (≈ 2.5 µg/mL)	6.3 (≈ 2.5 µg/mL)	> 100
Cn1cc(-c2ccc(N3C[C@H](CO)OC3=O)cc2F)ccc1=O [Example 26, 5-{2-fluoro-4-[(5R)-5-(hydroxymethyl)-2-oxo-1,3-oxazolidin-3-yl]phenyl}-1-methylpyridin-2(1H)-one]	–	–	–	6.3 (≈ 2.01 µg/mL)	6.3 (≈ 2.01 µg/mL)	28
CN=S1(=O)CCN(c2c(F)cc(N3C[C@H](CO)OC3=O)cc2F)CC1 [Example 27, 4-{2,6-difluoro-4-[(5R)-5-(hydroxymethyl)-2-oxo-1,3-oxazolidin-3-yl]phenyl}-1-(methylimino)-1λ^6-thiomorpholin-1-one]	–	–	–	6.3 (≈ 2.37 µg/mL)	6.3 (≈ 2.37 µg/mL)	> 100
CS(=O)(=O)c1ccc(-c2ccc(N3C[C@H](CO)OC3=O)cc2)cc1 [Example 28, (5R)-5-(hydroxymethyl)-3-[4′-(methanesulfonyl)[1,1′-biphenyl]-4-yl]-1,3-oxazolidin-2-one]	–	–	–	1.6 (≈ 0.556 µg/mL)	1.6 (≈ 0.556 µg/mL)	32
O=C1O[C@@H](CO)CN1c1ccc(-c2ccc(S(=O)(=O)C3CCC3)cc2)c(F)c1 [Example 29, (5R)-3-[4′-(cyclobutanesulfonyl)-2-fluoro[1,1′-biphenyl]-4-yl]-5-(hydroxymethyl)-1,3-oxazolidin-2-one]	–	–	–	3.1 (≈ 1.26 µg/mL)	3.1 (≈ 1.26 µg/mL)	> 100
O=C1O[C@@H](CO)CN1c1cc(F)c(C2(F)CCS(=O)(=O)CC2)c(Cl)c1 [Example 30, 4-{2-chloro-6-fluoro-4-[(5R)-5-(hydroxymethyl)-2-oxo-1,3-oxazolidin-3-yl]phenyl}-4-fluoro-1λ^6-thiane-1,1-dione]	–	–	–	13 (≈ 5.15 µg/mL)	6.3 (≈ 2.49 µg/mL)	> 100
O=C1O[C@@H](CO)CN1c1ccc(C2(F)CCS(=O)(=O)CC2)c(Cl)c1 [Example 31, 4-{2-chloro-4-[(5R)-5-(hydroxymethyl)-2-oxo-1,3-oxazolidin-3-yl]phenyl}-4-fluoro-1λ^6-thiane-1,1-dione]	–	–	–	13 (≈ 4.91 µg/mL)	13 (≈ 4.91 µg/mL)	> 100
O=C1O[C@@H](CO)CN1c1ccc(-c2ccc(S(=O)(=O)C3CC3)cc2)cc1 [Example 32, (5R)-3-[4′-(cyclopropanesulfonyl)[1,1′-biphenyl]-4-yl]-5-(hydroxymethyl)-1,3-oxazolidin-2-one]	–	–	–	3.1 (≈ 1.16 µg/mL)	3.1 (≈ 1.16 µg/mL)	30
O=C1O[C@@H](CO)CN1c1ccc(-c2ccc(S(=O)(=O)C3COC3)cc2)cc1 [Example 33, (5R)-5-(hydroxymethyl)-3-[4′-(oxetane-3-sulfonyl)[1,1′-biphenyl]-4-yl]-1,3-oxazolidin-2-one]	–	–	–	2.3 (≈ 0.896 µg/mL)	3.1 (≈ 1.21 µg/mL)	9.7
Cc1cc(N2C[C@H](CO)OC2=O)ccc1C1(F)CCS(=O)(=O)CC1 [Example 35, 4-fluoro-4-{4-[(5R)-5-(hydroxymethyl)-2-oxo-1,3-oxazolidin-3-yl]-2-methylphenyl}-1λ^6-thiane-1,1-dione]	–	–	–	50 (≈ 17.9 µg/mL)	25 (≈ 8.94 µg/mL)	> 100
O=C1O[C@@H](CO)CN1c1ccc(C2(F)CCS(=O)(=O)CC2)cc1 [Example 36, 4-fluoro-4-{4-[(5R)-5-(hydroxymethyl)-2-oxo-1,3-oxazolidin-3-yl]phenyl}-1λ^6-thiane-1,1-dione]	–	–	–	38 (≈ 13 µg/mL)	50 (≈ 17.2 µg/mL)	> 50
O=C1O[C@@H](CO)CN1c1ccc(C2(F)CCS(=O)(=O)CC2)c(C(F)(F)F)c1 [Example 37, 4-fluoro-4-{4-[(5R)-5-(hydroxymethyl)-2-oxo-1,3-oxazolidin-3-yl]-2-(trifluoromethyl)phenyl}-1λ^6-thiane-1,1-dione]	–	–	–	50 (≈ 20.6 µg/mL)	50 (≈ 20.6 µg/mL)	> 100
